{
  "source": "patent US20170340738A1",
  "about": "“STABLE ACIDIC INSULIN FORMULATIONS” (MERCK SHARP & DOHME CORP., priority 2012, published 2017)",
  "origin": "cited, not measured here",
  "settings": "administered once daily subcutaneously",
  "data": [
    {"substance": "Gly(A21), Arg(B31), Arg(B32)-human insulin [insulin glargine]", "values": [
      {"measurement": "Basal coverage", "result": 24, "unit": "h"}
    ]}
  ]
}
